Assay results as given in patent US10800791B2, “Triazole ACC inhibitors and uses thereof” (Gilead Apollo, LLC, priority 2015, dated 2020).
Converted amounts (≈) assume the structure as drawn. Read-outs that look alike come from different tables or passages of the source.

How the values were obtained:
Botrtyis cinerea (Bc) = assay: Growth inhibition assay of fungal pathogens, Bc; format: cell-based; conditions: 48 h, growth inhibition at 48 hours vs 2% DMSO control
Summary of the method: (§1)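 Spores from sub-cultured plates were diluted in 17% V8 liquid medium and exposed to compound from DMSO stocks at final concentrations of 50, 10 and 2 ppm or 2, 0.4 and 0.08 ppm. OD600 and visual ratings at 48 h were compared with the 2% DMSO control to give percent growth inhibition.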

human (hACC2) = human (hACC2) (Homo sapiens, UniProt O00763); assay: In vitro ACC inhibition assay (ADP-Glo), hACC2; format: biochemical; conditions: 5 nM ACC2, 20 μM ATP, 20 μM acetyl-CoA
human (hACC2), sequence (O00763 whole entry): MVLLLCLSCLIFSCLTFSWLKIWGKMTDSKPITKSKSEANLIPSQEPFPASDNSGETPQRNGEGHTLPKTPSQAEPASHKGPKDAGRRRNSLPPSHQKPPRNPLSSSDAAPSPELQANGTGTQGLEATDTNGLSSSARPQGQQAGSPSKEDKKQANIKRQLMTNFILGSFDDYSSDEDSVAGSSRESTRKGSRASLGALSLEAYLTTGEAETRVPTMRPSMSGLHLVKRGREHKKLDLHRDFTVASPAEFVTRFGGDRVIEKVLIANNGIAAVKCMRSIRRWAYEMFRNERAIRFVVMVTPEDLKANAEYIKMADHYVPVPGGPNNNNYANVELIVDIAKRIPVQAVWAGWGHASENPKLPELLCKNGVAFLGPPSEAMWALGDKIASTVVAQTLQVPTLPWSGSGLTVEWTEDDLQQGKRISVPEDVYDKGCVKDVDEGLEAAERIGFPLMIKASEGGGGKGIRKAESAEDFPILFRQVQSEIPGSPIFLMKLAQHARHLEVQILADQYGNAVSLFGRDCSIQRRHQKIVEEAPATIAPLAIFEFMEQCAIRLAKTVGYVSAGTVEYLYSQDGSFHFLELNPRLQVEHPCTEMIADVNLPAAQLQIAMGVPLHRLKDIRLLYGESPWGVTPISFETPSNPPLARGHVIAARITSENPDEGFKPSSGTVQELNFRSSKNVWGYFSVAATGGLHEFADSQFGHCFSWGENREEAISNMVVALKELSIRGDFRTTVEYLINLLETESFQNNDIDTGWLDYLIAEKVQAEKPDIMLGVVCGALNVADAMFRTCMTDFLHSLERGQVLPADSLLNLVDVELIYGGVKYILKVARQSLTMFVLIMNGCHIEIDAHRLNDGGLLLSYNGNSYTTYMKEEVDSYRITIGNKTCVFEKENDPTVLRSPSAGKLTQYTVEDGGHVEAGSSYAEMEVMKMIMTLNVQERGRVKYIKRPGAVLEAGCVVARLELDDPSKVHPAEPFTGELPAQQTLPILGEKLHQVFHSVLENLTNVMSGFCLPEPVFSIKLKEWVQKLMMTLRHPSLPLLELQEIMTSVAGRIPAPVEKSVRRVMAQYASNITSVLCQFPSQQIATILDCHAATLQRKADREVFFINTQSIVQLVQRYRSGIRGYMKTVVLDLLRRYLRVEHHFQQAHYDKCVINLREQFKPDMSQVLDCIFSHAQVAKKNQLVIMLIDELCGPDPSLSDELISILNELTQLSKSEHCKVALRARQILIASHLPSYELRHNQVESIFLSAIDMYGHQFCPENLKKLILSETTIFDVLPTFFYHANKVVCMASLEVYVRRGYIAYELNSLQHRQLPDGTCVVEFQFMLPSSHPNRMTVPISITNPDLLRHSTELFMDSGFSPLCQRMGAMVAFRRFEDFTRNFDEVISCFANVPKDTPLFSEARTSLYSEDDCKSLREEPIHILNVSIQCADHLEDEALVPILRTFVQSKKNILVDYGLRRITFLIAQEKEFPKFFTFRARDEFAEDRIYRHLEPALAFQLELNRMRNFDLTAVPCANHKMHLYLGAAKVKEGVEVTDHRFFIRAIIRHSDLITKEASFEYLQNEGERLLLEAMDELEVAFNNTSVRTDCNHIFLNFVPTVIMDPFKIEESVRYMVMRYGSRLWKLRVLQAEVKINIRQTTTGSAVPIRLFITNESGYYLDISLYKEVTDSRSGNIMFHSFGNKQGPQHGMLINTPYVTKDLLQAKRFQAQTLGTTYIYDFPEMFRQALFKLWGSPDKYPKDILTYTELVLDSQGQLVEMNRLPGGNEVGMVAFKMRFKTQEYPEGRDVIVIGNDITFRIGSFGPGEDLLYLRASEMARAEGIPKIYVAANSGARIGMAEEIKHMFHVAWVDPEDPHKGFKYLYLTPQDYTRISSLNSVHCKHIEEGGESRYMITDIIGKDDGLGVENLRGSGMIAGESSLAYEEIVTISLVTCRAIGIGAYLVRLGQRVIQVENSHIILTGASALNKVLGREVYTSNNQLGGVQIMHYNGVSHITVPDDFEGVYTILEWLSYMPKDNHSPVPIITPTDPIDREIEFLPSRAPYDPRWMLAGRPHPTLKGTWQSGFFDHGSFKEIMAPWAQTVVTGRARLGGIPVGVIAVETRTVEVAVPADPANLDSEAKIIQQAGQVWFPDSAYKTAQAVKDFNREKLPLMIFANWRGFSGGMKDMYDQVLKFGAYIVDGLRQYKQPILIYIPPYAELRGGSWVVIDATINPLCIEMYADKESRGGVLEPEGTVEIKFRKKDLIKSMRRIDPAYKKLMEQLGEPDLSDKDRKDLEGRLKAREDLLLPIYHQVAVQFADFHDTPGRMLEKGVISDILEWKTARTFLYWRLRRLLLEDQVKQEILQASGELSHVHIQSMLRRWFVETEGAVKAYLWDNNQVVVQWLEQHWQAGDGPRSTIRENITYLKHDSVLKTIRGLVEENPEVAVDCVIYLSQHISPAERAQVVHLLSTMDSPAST
Method: The detailed procedure is as follows. […] 10 μL ADP glo reagent was added. […] 20 μL kinase detection reagent was added.

C. krusei = assay: Antifungal Activity Assay (broth microtiter MIC), C. krusei; format: cell-based, Candida krusei; conditions: Pichia kudriavzevii, ATCC6258, 48 h
Summary of the method: (§2)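 Susceptibility was determined by CLSI M27-A3 broth microdilution in RPMI 1640 buffered with MOPS. Growth inhibition was scored visually after 48 h.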

C. albicans = assay: Antifungal Activity Assay (broth microtiter MIC), C. albicans; format: cell-based, Candida albicans; conditions: Candida albicans, ATCC90028, 48 h
Summary of the method: as §2

Rhizoctonia solani (Rs) = assay: Growth inhibition assay of fungal pathogens, Rs; format: cell-based; conditions: 48 h
fungal (fACC2) = fungal (fACC2) (UniProt Q00955); conditions: read-out: fACC2 (in vitro ACC2 Inhibition Assay, IC50), ADP-Glo, 5 nM ACC2, 20 μM ATP, 20 μM acetyl-CoA
fungal (fACC2), sequence (Q00955 whole entry): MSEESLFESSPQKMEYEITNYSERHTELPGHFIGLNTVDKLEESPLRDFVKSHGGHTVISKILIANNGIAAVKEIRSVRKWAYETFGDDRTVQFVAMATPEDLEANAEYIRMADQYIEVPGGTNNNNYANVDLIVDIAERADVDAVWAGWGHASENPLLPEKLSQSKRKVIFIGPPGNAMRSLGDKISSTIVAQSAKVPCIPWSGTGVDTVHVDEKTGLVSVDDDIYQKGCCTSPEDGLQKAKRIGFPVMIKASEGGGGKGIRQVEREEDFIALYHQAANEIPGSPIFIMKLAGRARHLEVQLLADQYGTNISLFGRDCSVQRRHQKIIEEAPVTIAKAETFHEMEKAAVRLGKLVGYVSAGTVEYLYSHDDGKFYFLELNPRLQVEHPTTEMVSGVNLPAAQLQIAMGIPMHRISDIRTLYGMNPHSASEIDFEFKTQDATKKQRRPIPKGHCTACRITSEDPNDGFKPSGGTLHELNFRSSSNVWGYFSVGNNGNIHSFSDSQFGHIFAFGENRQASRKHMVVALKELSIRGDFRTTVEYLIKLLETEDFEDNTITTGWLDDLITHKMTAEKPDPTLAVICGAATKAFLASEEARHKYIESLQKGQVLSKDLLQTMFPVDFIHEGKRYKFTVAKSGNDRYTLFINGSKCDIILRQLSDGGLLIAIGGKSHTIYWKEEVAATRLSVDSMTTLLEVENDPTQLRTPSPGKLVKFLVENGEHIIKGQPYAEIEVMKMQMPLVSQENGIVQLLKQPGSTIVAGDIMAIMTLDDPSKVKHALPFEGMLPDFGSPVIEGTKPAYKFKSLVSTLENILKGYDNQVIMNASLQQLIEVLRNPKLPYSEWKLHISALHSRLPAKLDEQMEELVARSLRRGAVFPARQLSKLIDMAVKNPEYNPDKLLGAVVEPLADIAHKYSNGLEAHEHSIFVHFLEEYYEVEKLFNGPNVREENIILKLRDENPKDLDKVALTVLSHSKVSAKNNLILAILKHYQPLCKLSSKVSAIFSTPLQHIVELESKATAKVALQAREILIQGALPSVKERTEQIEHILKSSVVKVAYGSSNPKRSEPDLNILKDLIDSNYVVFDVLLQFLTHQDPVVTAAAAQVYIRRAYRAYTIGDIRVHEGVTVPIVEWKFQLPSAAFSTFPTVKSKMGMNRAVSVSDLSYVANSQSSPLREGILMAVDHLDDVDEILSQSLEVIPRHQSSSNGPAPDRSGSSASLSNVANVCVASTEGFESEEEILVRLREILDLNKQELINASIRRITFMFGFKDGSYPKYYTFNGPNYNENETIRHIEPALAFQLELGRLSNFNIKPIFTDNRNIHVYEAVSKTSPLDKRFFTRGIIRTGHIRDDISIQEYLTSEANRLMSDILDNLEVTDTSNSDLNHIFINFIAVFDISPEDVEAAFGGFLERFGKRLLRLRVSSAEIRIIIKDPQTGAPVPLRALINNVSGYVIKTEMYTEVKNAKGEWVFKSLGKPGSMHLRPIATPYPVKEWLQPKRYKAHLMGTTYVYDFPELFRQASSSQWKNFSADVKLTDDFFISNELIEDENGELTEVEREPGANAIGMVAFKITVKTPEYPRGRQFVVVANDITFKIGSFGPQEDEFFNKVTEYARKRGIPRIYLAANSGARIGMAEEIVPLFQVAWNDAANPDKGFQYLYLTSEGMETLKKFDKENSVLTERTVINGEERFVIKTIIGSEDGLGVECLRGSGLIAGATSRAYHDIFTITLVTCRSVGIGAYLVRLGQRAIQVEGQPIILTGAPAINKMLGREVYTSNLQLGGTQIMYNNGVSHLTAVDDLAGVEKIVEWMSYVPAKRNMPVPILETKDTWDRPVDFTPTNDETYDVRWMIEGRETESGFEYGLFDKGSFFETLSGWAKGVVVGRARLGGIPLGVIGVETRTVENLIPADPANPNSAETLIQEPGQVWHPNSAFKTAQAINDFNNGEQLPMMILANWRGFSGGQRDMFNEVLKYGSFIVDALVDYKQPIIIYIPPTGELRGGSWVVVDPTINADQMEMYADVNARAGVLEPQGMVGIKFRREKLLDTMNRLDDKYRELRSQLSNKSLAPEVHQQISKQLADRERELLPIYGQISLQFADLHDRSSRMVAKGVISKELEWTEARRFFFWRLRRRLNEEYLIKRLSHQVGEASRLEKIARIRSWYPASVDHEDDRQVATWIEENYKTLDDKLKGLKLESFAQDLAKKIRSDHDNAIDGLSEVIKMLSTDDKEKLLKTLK

Septoria tritici (St) = assay: Growth inhibition assay of fungal pathogens, St; format: cell-based; conditions: Zymoseptoria tritici, 48 h, growth inhibition at 48 hours vs 2% DMSO control
Summary of the method: as §1

Diplodia maydis (Dm) = assay: Growth inhibition assay of fungal pathogens, Dm; format: cell-based; conditions: Stenocarpella maydis, 48 h, growth inhibition at 48 hours vs 2% DMSO control
Summary of the method: as §1

C. parapsilosis = assay: Antifungal Activity Assay (broth microtiter MIC), C. parapsilosis; format: cell-based, Candida parapsilosis; conditions: Lodderomyces parapsilosis, ATCC22019, 48 h
Summary of the method: as §2

[1] = system: Phytophthora capsici (Pc); assay: Growth inhibition assay of fungal pathogens, Pc; format: cell-based; conditions: 48 h
Summary of the method: as §1

[2] = system: Collectotrichum graminicola (Cg); assay: Growth inhibition assay of fungal pathogens, Cg; format: cell-based; conditions: 48 h, growth inhibition at 48 hours vs 2% DMSO control
Summary of the method: as §1

[3] = system: Fusarium moniliforme (Fm); assay: Growth inhibition assay of fungal pathogens, Fm; format: cell-based; conditions: Fusarium verticillioides, 48 h, read-out: Concentration at 90% Inhibition Fm
Summary of the method: as §1

[4] = system: Fusarium virguliforme (Fv); assay: Growth inhibition assay of fungal pathogens, Fv; format: cell-based; conditions: 48 h
Summary of the method: as §1

[5] = read-out: Concentration at 90% Inhibition Bc, Botrtyis cinerea
[6] = read-out: MIC, C. krusei ATCC 6258, Table 3a, 3 replicates, MIC recorded at 48 h
[7] = read-out: MIC, C. krusei ATCC 6258, Table 3b (additional results), 3 replicates, MIC recorded at 48 h
[8] = read-out: MIC, C. albicans ATCC 90028, Table 3a, 3 replicates, MIC recorded at 48 h
[9] = read-out: MIC, C. albicans ATCC 90028, Table 3b (additional results), 3 replicates, MIC recorded at 48 h
[10] = read-out: Concentration at 90% Inhibition Rs, Rhizoctonia solani, mycelial plugs, growth inhibition at 48 hours vs 2% DMSO control
[11] = read-out: Concentration at 90% Inhibition St, Septoria tritici
[12] = read-out: Concentration at 90% Inhibition Dm, Diplodia maydis
[13] = read-out: MIC, C. parapsilosis ATCC 22019, Table 3a, 3 replicates, MIC recorded at 48 h
[14] = read-out: MIC, C. parapsilosis ATCC 22019, Table 3b (additional results), 3 replicates, MIC recorded at 48 h
[15] = read-out: Concentration at 90% Inhibition Pc, Phytophthora capsici, growth inhibition at 48 hours vs 2% DMSO control
[16] = read-out: Concentration at 90% Inhibition Cg, Collectotrichum graminicola
[17] = read-out: Concentration at 90% Inhibition Fv, Fusarium virguliforme, growth inhibition at 48 hours vs 2% DMSO control
[18] = Botrtyis cinerea, read-out: Concentration at 90% Inhibition Bc
[19] = Table 3a, ATCC 6258, 3 replicates, MIC recorded at 48 h, read-out: MIC, C. krusei ATCC 6258
[20] = Table 3b (additional results), ATCC 6258, 3 replicates, MIC recorded at 48 h, read-out: MIC, C. krusei ATCC 6258
[21] = Table 3a, ATCC 90028, 3 replicates, MIC recorded at 48 h, read-out: MIC, C. albicans ATCC 90028
[22] = Table 3b (additional results), ATCC 90028, 3 replicates, MIC recorded at 48 h, read-out: MIC, C. albicans ATCC 90028
[23] = mycelial plugs, growth inhibition at 48 hours vs 2% DMSO control, read-out: Concentration at 90% Inhibition Rs
[24] = Septoria tritici, read-out: Concentration at 90% Inhibition St
[25] = Diplodia maydis, read-out: Concentration at 90% Inhibition Dm
[26] = Table 3a, ATCC 22019, 3 replicates, MIC recorded at 48 h, read-out: MIC, C. parapsilosis ATCC 22019
[27] = Table 3b (additional results), ATCC 22019, 3 replicates, MIC recorded at 48 h, read-out: MIC, C. parapsilosis ATCC 22019
[28] = growth inhibition at 48 hours vs 2% DMSO control, read-out: Concentration at 90% Inhibition Pc
[29] = Collectotrichum graminicola, read-out: Concentration at 90% Inhibition Cg
[30] = Fusarium moniliforme, growth inhibition at 48 hours vs 2% DMSO control
[31] = growth inhibition at 48 hours vs 2% DMSO control, read-out: Concentration at 90% Inhibition Fv

Row | Compound | IC90 (Botrtyis cinerea (Bc); [5]) | IC50 (human (hACC2); Table 2b, additional results) | MIC (C. krusei; [6]) | MIC (C. krusei; [7]) | MIC (C. albicans; [8]) | MIC (C. albicans; [9]) | IC50 (fungal (fACC2); Table 2a) | IC50 (fungal (fACC2); Table 2b, additional results) | IC90 (Botrtyis cinerea (Bc); [18]) | IC50 (human (hACC2); Table 2a) | MIC (C. krusei; [20]) | MIC (C. albicans; [22]) | IC90 (Rhizoctonia solani (Rs); [23]) | IC90 (Septoria tritici (St); [24]) | IC90 (Diplodia maydis (Dm); [25]) | MIC (C. parapsilosis; [27]) | IC90 [1, 28] | IC90 [2, 29] | IC90 [3, 30] | IC90 [4, 31] | also measured
1 | COc1ccc(F)cc1[C@H](Cn1c(=O)n(C(C)(C)C(=O)NC(C)C)c(=O)c2c(C)c(-n3nccn3)sc21)OCC#N [Compound I-144] | 0.4 µg/mL (≈ 0.685 µM) | 5 to 10 nM | 0.25 to 1 µg/mL (≈ 0.428 to 1.71 µM) | 0.25 to 1 µg/mL (≈ 0.428 to 1.71 µM) | 0.25 to 1 µg/mL (≈ 0.428 to 1.71 µM) | 1.01 to 2 µg/mL (≈ 1.73 to 3.43 µM) | 1 to 5 nM | 1 to 5 nM | – | – | – | – | – | – | – | – | – | – | – | – | IC90 (Rhizoctonia solani (Rs); [10]): 0.08 µg/mL (≈ 0.137 µM); IC90 (Septoria tritici (St); [11]): > 50 µg/mL; IC90 (Diplodia maydis (Dm); [12]): 0.4 µg/mL (≈ 0.685 µM); MIC (C. parapsilosis; [13]): 0.25 to 1 µg/mL (≈ 0.428 to 1.71 µM); MIC (C. parapsilosis; [14]): 1.01 to 2 µg/mL (≈ 1.73 to 3.43 µM); IC90 [1, 15]: > 50 µg/mL; IC90 [2, 16]: 0.4 µg/mL (≈ 0.685 µM); IC90 [3]: 2 µg/mL (≈ 3.43 µM); IC90 [4, 17]: 0.4 µg/mL (≈ 0.685 µM)
2 | COc1ccc(F)cc1[C@H](Cn1c(=O)n(C(C)(C)C(=O)NC(C)C)c(=O)c2c(C)c(-n3nccn3)sc21)OC[C@@H](C)C#N [Compound I-150] | – | 1 to 5 nM | – | – | – | – | 0.4 to 1 nM | 0.3 to 1 nM | 0.4 µg/mL (≈ 0.654 µM) | 1 to 5 nM | 0.25 to 1 µg/mL (≈ 0.409 to 1.63 µM) | 0.25 to 1 µg/mL (≈ 0.409 to 1.63 µM) | 0.08 µg/mL (≈ 0.131 µM) | > 50 µg/mL | 0.08 µg/mL (≈ 0.131 µM) | 0.25 to 1 µg/mL (≈ 0.409 to 1.63 µM) | > 50 µg/mL | 0.08 µg/mL (≈ 0.131 µM) | 0.08 µg/mL (≈ 0.131 µM) | 0.4 µg/mL (≈ 0.654 µM) | MIC (C. krusei; [19]): 0.25 to 1 µg/mL (≈ 0.409 to 1.63 µM); MIC (C. albicans; [21]): 0.25 to 1 µg/mL (≈ 0.409 to 1.63 µM); MIC (C. parapsilosis; [26]): 0.25 to 1 µg/mL (≈ 0.409 to 1.63 µM)
3 | COc1ccc(F)cc1[C@H](Cn1c(=O)n(C(C)(C)C(=O)NC(C)C)c(=O)c2c(C)c(-n3nccn3)sc21)OC[C@H](C)C#N [Compound I-151] | – | 1 to 5 nM | – | – | – | – | 0.4 to 1 nM | 0.3 to 1 nM | 0.4 µg/mL (≈ 0.654 µM) | 5 to 10 nM | 0.25 to 1 µg/mL (≈ 0.409 to 1.63 µM) | 0.25 to 1 µg/mL (≈ 0.409 to 1.63 µM) | 0.08 µg/mL (≈ 0.131 µM) | > 50 µg/mL | 0.08 µg/mL (≈ 0.131 µM) | 0.25 to 1 µg/mL (≈ 0.409 to 1.63 µM) | > 50 µg/mL | 0.08 µg/mL (≈ 0.131 µM) | 0.08 µg/mL (≈ 0.131 µM) | 0.4 µg/mL (≈ 0.654 µM) | MIC (C. krusei; [19]): 0.25 to 1 µg/mL (≈ 0.409 to 1.63 µM); MIC (C. albicans; [21]): 0.25 to 1 µg/mL (≈ 0.409 to 1.63 µM); MIC (C. parapsilosis; [26]): 0.25 to 1 µg/mL (≈ 0.409 to 1.63 µM)
4 | COc1ccc(F)cc1[C@H](Cn1c(=O)n(C(C)(C)C(=O)NC(C)C)c(=O)c2c(C)c(-n3nccn3)sc21)OCC(C)(C)C#N [Compound I-154] | 0.4 µg/mL (≈ 0.639 µM) | 5 to 10 nM | 0.25 to 1 µg/mL (≈ 0.4 to 1.6 µM) | 0.25 to 1 µg/mL (≈ 0.4 to 1.6 µM) | 0.25 to 1 µg/mL (≈ 0.4 to 1.6 µM) | 0.25 to 1 µg/mL (≈ 0.4 to 1.6 µM) | 1 to 5 nM | 1 to 5 nM | – | 5 to 10 nM | – | – | – | – | – | – | – | – | – | – | IC90 (Rhizoctonia solani (Rs); [10]): 0.08 µg/mL (≈ 0.128 µM); IC90 (Septoria tritici (St); [11]): > 50 µg/mL; IC90 (Diplodia maydis (Dm); [12]): 0.08 µg/mL (≈ 0.128 µM); MIC (C. parapsilosis; [13]): 0.25 to 1 µg/mL (≈ 0.4 to 1.6 µM); MIC (C. parapsilosis; [14]): 1.01 to 2 µg/mL (≈ 1.61 to 3.2 µM); IC90 [1, 15]: > 50 µg/mL; IC90 [2, 16]: 0.4 µg/mL (≈ 0.639 µM); IC90 [3]: 0.08 µg/mL (≈ 0.128 µM); IC90 [4, 17]: 0.4 µg/mL (≈ 0.639 µM)
5 | COc1ccc(F)cc1[C@H](Cn1c(=O)n([C@H](C)C(=O)N2CCCC2)c(=O)c2c(C)c(-n3nccn3)sc21)OCCC#N [Compound I-187] | – | 1 to 5 nM | – | – | – | – | – | 1 to 5 nM | 0.4 µg/mL (≈ 0.672 µM) | – | 2.01 to 4 µg/mL (≈ 3.37 to 6.72 µM) | 2.01 to 4 µg/mL (≈ 3.37 to 6.72 µM) | 0.4 µg/mL (≈ 0.672 µM) | > 50 µg/mL | 2 µg/mL (≈ 3.36 µM) | 1.01 to 2 µg/mL (≈ 1.7 to 3.36 µM) | > 50 µg/mL | 2 µg/mL (≈ 3.36 µM) | 0.08 µg/mL (≈ 0.134 µM) | 0.4 µg/mL (≈ 0.672 µM) | –
